# Results from the supplement of paper PMC10307832.
# Legend:
# Assay in all cases: relative viability (nuclei count vs DMSO), 5 days (fraction); higher = more cells survive
# BAY61-3606 + Bortezomib = compound: COC1=C(C=C(C=C1)C2=CC3=NC=CN3C(=N2)NC4=C(C=CC=N4)C(=O)N)OC [BAY61-3606] + CC(C)C[C@H](NC(=O)[C@H](Cc1ccccc1)NC(=O)c1cnccn1)B(O)O [Bortezomib] (partner 0.002 µM)
# Procedure, shortened: (§1)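 The day after seeding in 1536-well plates, lung cancer cell lines were treated by pin tool with a single drug, or with a fixed anchor-drug dose together with five library-drug doses (not always all listed) in √10 steps. After 5 days, a combined fix-and-stain solution (final 0.05% Triton X-100, 1% formaldehyde, 1 ug/ml Hoechst) was added. Nuclei counted on 4× images gave relative viability as treated counts over vehicle counts, reported as the median of duplicate plates.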
# BAY61-3606 + Lapatinib = compound: COC1=C(C=C(C=C1)C2=CC3=NC=CN3C(=N2)NC4=C(C=CC=N4)C(=O)N)OC [BAY61-3606] + CS(=O)(=O)CCNCc1ccc(-c2ccc3ncnc(Nc4ccc(OCc5cccc(F)c5)c(Cl)c4)c3c2)o1 [Lapatinib] (partner 2 µM)
# Procedure, shortened: as §1
# BAY61-3606 + Tozasertib = compound: COC1=C(C=C(C=C1)C2=CC3=NC=CN3C(=N2)NC4=C(C=CC=N4)C(=O)N)OC [BAY61-3606] + Cc1cc(Nc2cc(N3CCN(C)CC3)nc(Sc3ccc(NC(=O)C4CC4)cc3)n2)n[nH]1 [Tozasertib] (partner 0.1 µM)
# Procedure, shortened: as §1
# BAY61-3606 + Olaparib = compound: COC1=C(C=C(C=C1)C2=CC3=NC=CN3C(=N2)NC4=C(C=CC=N4)C(=O)N)OC [BAY61-3606] + O=C(c1cc(Cc2n[nH]c(=O)c3ccccc23)ccc1F)N1CCN(C(=O)C2CC2)CC1 [Olaparib] (partner 8 µM)
# Procedure, shortened: as §1
Cell Line,relative viability (BAY61-3606 + Bortezomib; first compound 0.02 µM),relative viability (BAY61-3606 + Bortezomib; first compound 0.06325 µM),relative viability (BAY61-3606 + Bortezomib; first compound 0.2 µM),relative viability (BAY61-3606 + Bortezomib; first compound 0.6325 µM),relative viability (BAY61-3606 + Bortezomib; first compound 2 µM),relative viability (BAY61-3606 + Lapatinib; first compound 0.02 µM),relative viability (BAY61-3606 + Lapatinib; first compound 0.06325 µM),relative viability (BAY61-3606 + Lapatinib; first compound 0.2 µM),relative viability (BAY61-3606 + Lapatinib; first compound 0.6325 µM),relative viability (BAY61-3606 + Lapatinib; first compound 2 µM),relative viability (BAY61-3606 + Tozasertib; first compound 0.02 µM),relative viability (BAY61-3606 + Tozasertib; first compound 0.06325 µM),relative viability (BAY61-3606 + Tozasertib; first compound 0.2 µM),relative viability (BAY61-3606 + Tozasertib; first compound 0.6325 µM),relative viability (BAY61-3606 + Tozasertib; first compound 2 µM),relative viability (BAY61-3606 + Olaparib; first compound 0.02 µM),relative viability (BAY61-3606 + Olaparib; first compound 0.06325 µM),relative viability (BAY61-3606 + Olaparib; first compound 0.2 µM),relative viability (BAY61-3606 + Olaparib; first compound 0.6325 µM),relative viability (BAY61-3606 + Olaparib; first compound 2 µM)
NCI-H1734,0.878,0.894,0.836,0.883,0.518,0.991,1.07,1,1.14,0.758,0.238,0.243,0.222,0.227,0.196,0.604,0.555,0.561,0.541,0.378
NCI-H1666,0.99,–,0.836,0.806,0.683,0.668,–,0.523,0.649,0.445,0.6,0.572,0.492,0.473,0.458,0.767,0.827,0.748,0.754,0.724
NCI-H647,1.16,1.06,1.19,1.07,0.696,1.13,1.25,1.12,1.11,0.86,0.339,0.176,0.167,0.258,0.131,0.729,0.743,0.574,0.432,0.237
LCLC-97TM1,0.639,0.73,0.527,0.533,0.702,1.23,–,1.05,1.05,0.864,0.17,0.184,0.233,0.147,0.0986,0.498,0.365,0.462,0.336,0.389
LOU-NH91,0.52,0.485,0.462,0.467,0.454,0.765,0.681,0.827,0.735,0.669,0.617,0.363,0.473,0.422,0.344,0.944,0.922,0.903,0.944,0.728
RERF-LC-KJ,1.2,1.13,1.06,1.17,0.85,0.935,0.741,0.859,0.814,0.709,0.532,0.435,0.399,0.368,0.279,0.878,0.899,1.07,0.872,0.779
NCI-H1437,0.544,0.502,0.433,0.536,0.509,0.892,0.915,0.729,0.905,0.683,0.402,0.391,0.428,0.416,0.374,0.634,0.687,0.607,0.621,0.555
NCI-H2087,0.908,0.862,0.869,0.759,0.746,0.747,1.08,0.994,1.11,1,0.223,0.253,0.166,0.176,0.157,0.547,0.682,0.489,0.54,0.448
